# Measurements reported in patent US20260263517A1, “THERAPEUTIC METHODS WITH TARGET-LINKED SMALL MOLECULES AND ANTI-TARGET CAR T CELLS” (Seattle Children's Hospital (dba Seattle Children's …, priority 2022, published 2026).
# How the values were obtained:
# water solubility of EC17 = type: physicochemical
# MDA-MB-231 tumors = assay: EC17 dose finding and CRS assessment in MDA-MB-231 tumor-bearing mice; type: in vivo; details: for human IFNγ in mouse plasma, fold over CAR-T cells only: all EC17 treated tumor cohorts
# Experimental: All animal care and use were performed according to NIH guidelines and in compliance with protocols approved by the Purdue University Animal Use and Care Committee. Female 4 to 5-week-old NOD/SCID gamma (NSG™) mice (stock number:005557) were purchased from The Jackson Faboratory (Bar Harbor, ME). Unless specifically indicated, all animals were maintained on a FA-deficient diet (TestDiet, St. Fouis, MO) upon arrival and throughout the study. To establish subcutaneous xenografts, MDA-MB-231 and HOS-FRα were implanted in the right flank region at 2.5×10^6 and 1×10^6 cells per animal, respectively. For intravenous xenografts, THP1-FRβ) cells were inoculated at 5×10^6 cells per animal. Subcutaneous tumors were measured 2-3 times per week with a caliper and calculated using the ellipsoidal formula (length×width2)/2. […] All animal doses (CAR-T cells, EC17, sodium fluorescein) were given intravenously.
# In a therapeutic setting, EC17 CAM can be given before or after CAR-T cell injection. As described herein, the first dose of EC17 was administered 2-3.5 days after CAR-T cells to allow for an observation period of human T cells in tumor-bearing mice. Two batches of unsorted E2-CAR-T cells (23% or 39% EGFRt+, 1:1 CD4/CD8) were used for in vivo studies. On the day of infusion for each experiment (day 0), frozen CAR-T cells were quickly thawed at 37° C., washed 2× with Dulbecco's IX PBS (pH 7.4) and injected into the tail vein at desired EGFRt+E2-CAR-T cell doses. In addition, a small aliquot of CAR-T cells was analyzed by flow cytometry for CD4 to CD 8 ratio and differentiation status of CAR-T cells. On the first day of EC17 dose, tumor-bearing animals were randomly assigned into groups according to their tumor sizes or the same number of days post intravenous implantation (i.e., THP1-FRβ).
# For MDA-MB-231 studies, mice received a high dose (~10 million) of a “clinical facsimile” of E2-CAR-T cells (~39% EGFRt+) with a low differentiation profile (FIG. 9). Two days later, 3 different treatment regimens of EC17 were started at an average tumor size of −293±39 mm^3 (FIG. 12). The EC17 dosing was given once-a-week (SIW) at 500 nmol/kg on Mondays, or as escalating doses of 5, 50 or 100, and 500 or 1000 nmol/kg (i.e., 5/50/500 or 5/100/1000) on Monday, Thursday, and Monday with a 6-day break in-between cycles. Control mice were left untreated (received CAR-T cells but no EC17). For comparison, a cohort of tumor-free littermates also received the same number of CAR-T cells without or with EC17 SIW at 500 nmol/kg.
# The initial EC17 dose finding studies were conducted in MDA-MB-231 tumor bearing mice as shown by the schematic diagram of the experimental layout (FIG. 12, panel A). NSG mice without or with MDA-MB-231 tumors (~211±65 mm3) were engrafted on day 0 with −10 million of a “clinical facsimile” batch of E2-CAR-T cells (−39% EGFRt+, 51:49 CD4/CD8). This batch of CAR-T cells consisted of mostly TSCM and TCM phenotypes (see FIG. 9). Two days after the CAR-T cell injection, one cohort of tumor-bearing mice were left untreated while three cohorts were treated with different regimens of EC17, including single injection per week (SIW) at 500 nmol/kg, or as escalating EC17 dose levels of 5/50/500 (Escalation-1) or 5/100/1000 nmol/kg (Escalation-2) given on a Monday/Thursday/Monday schedule with 1-week drug-free intervals. For comparison, two tumor-free cohorts were either untreated or treated with EC17 SIW at 500 nmol/kg.
# [1] = ~10 million CAR-T cells, continued EC17 dosing independent of the regimen
compound,measurement,setting,value
"NC1=NC2N=CC(CNc3ccc(C(=O)N[C@@H](CCC(=O)NCCNC(=S)Nc4ccc(-c5c6ccc(=O)cc-6oc6cc(O)ccc56)c(C(=O)O)c4)C(=O)O)cc3)=NC2C(=O)N1 (stereo partly shown) [EC17, FA-(γ)-ethylenediamine-FITC]",water solubility,water solubility of EC17,good water solubility
same,cures,MDA-MB-231 tumors; EC17-treated cohorts,100%
same,body weight loss,MDA-MB-231 tumors; EC17 Escalation-2 regimen 5/100/1000 nmol/kg,persistent body weight loss
same,onset of CRS and body weight loss,MDA-MB-231 tumors; EC17 SIW at 500 nmol/kg,earliest onset of CRS and body weight loss
same,"human IFNγ in mouse plasma, fold over CAR-T cells only",MDA-MB-231 tumors; day 11 (~20 hours after previous EC17 dose),~ 30 ×
same,"human IFNγ in mouse plasma, fold over CAR-T cells only",MDA-MB-231 tumors; day 12 (~42 hours after previous EC17 dose),~ 10 ×
same,EC17 dose triggering severe CRS (grade≥3),MDA-MB-231 tumors; in combination with a high CAR-T cell dose,≥ 500 nmol/kg
same,persistence of CAR-T cells in mouse blood,"MDA-MB-231 tumors; tumor-bearing animals, last measurement",up to 54 days
same,CRS symptoms (grades),MDA-MB-231 tumors; [1],2-3
same,body weight loss,MDA-MB-231 tumors; [1],significant body weight losses
